Results published in ChEMBL document CHEMBL1201862, “PubChem BioAssay data set” (2004).
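Cultured in 96-well plates, cells were exposed to test compound for 48 hours across five concentrations. Here, GI50 denotes the concentration required for 50% inhibition of growth.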 The source made the active and inactive calls. Rule as the data show it: active = GI50 up to about 1.1 µM and inactive = higher. Where a SMILES comes first, the peptide text is derived from it. [ ]: non-standard residue; d: D form. The star is where a group is joined. Phe(4-NO2) = N[CH](Cc1ccc([N+](=O)[O-])cc1)C(=O)O; Boc = CC(C)(C)OC(=O)*

Key:
Assay in all cases: growth of human tumour cells (NCI), 48 h
A549 = test system: A549
CAKI-1 = test system: CAKI-1
CCRF-CEM = test system: CCRF-CEM
COLO 205 = test system: COLO 205
HCT-116 = test system: HCT-116
HOP-62 = test system: HOP-62
HOP-92 = test system: HOP-92
OVCAR-3 = test system: OVCAR-3
RXF 393 = test system: RXF 393
SF-295 = test system: SF-295
SF-539 = test system: SF-539
SK-MEL-5 = test system: SK-MEL-5
SK-OV-3 = test system: SK-OV-3
SN12C = test system: SN12C
SNB-75 = test system: SNB-75
TK-10 = test system: TK-10
U-251 = test system: U-251
EKVX = test system: EKVX
SK-MEL-2 = test system: SK-MEL-2

Row | Compound | GI50 (A549) | GI50 (CAKI-1) | GI50 (CCRF-CEM) | GI50 (COLO 205) | GI50 (HCT-116) | GI50 (HOP-62) | GI50 (HOP-92) | GI50 (OVCAR-3) | GI50 (RXF 393) | GI50 (SF-295) | GI50 (SF-539) | GI50 (SK-MEL-5) | GI50 (SK-OV-3) | GI50 (SN12C) | GI50 (SNB-75) | GI50 (TK-10) | GI50 (U-251) | GI50 (EKVX) | GI50 (SK-MEL-2)
1 | CC(CCCOC(c1ccccc1)(c1ccccc1)c1ccccc1)OC(=O)Nc1ccccc1 (stereo not drawn) | 11.1 µM (inactive) | 13.5 µM (inactive) | 14.6 µM (inactive) | 18.2 µM (inactive) | 11.1 µM (inactive) | 14.8 µM (inactive) | 10 µM (inactive) | 14 µM (inactive) | 12.8 µM (inactive) | 12.7 µM (inactive) | 17.8 µM (inactive) | 14.1 µM (inactive) | 14.2 µM (inactive) | 12 µM (inactive) | 14.5 µM (inactive) | 20.4 µM (inactive) | 13.6 µM (inactive) |  | 
2 | CCCCCCCCOCC(O)COC (stereo not drawn) | > 100 µM (inactive) | > 100 µM (inactive) | > 100 µM (inactive) | > 100 µM (inactive) | > 100 µM (inactive) | > 100 µM (inactive) | 82.6 µM (inactive) | 94.6 µM (inactive) |  | > 100 µM (inactive) |  | > 100 µM (inactive) | > 100 µM (inactive) | > 100 µM (inactive) |  | > 100 µM (inactive) | > 100 µM (inactive) |  | 
3 | COc1cc2cnc3c4cc(OC(C)C)c(OC)cc4ccc3c2cc1OC | > 100 µM (inactive) | > 100 µM (inactive) | > 100 µM (inactive) | > 100 µM (inactive) | > 100 µM (inactive) | > 100 µM (inactive) |  | > 100 µM (inactive) |  | > 100 µM (inactive) | > 100 µM (inactive) | > 100 µM (inactive) | > 100 µM (inactive) | > 100 µM (inactive) | > 100 µM (inactive) | > 100 µM (inactive) | > 100 µM (inactive) | > 100 µM (inactive) | > 100 µM (inactive)
4 | Cn1ncc2ccc3[nH]c4ccccc4c(=O)c3c21 | 20.2 µM (inactive) | 23.4 µM (inactive) | 38.3 µM (inactive) | 26.4 µM (inactive) | 24.9 µM (inactive) | 26.5 µM (inactive) | 37.8 µM (inactive) | 37.3 µM (inactive) | 14.7 µM (inactive) | 34.8 µM (inactive) |  | 17.5 µM (inactive) | 50.7 µM (inactive) | 28.2 µM (inactive) | 19.9 µM (inactive) | 21.1 µM (inactive) | 15.7 µM (inactive) | 42 µM (inactive) | 33.1 µM (inactive)
5 | O=C(/C(=C/c1ccc(Cl)cc1)c1ccccc1)c1ccccc1 |  |  | 32.4 µM (inactive) | 18.8 µM (inactive) | 13.6 µM (inactive) | 25.9 µM (inactive) | 13.9 µM (inactive) |  |  | 18.8 µM (inactive) | 17.4 µM (inactive) |  | 23.9 µM (inactive) | 16.7 µM (inactive) | 22.8 µM (inactive) | 25.4 µM (inactive) | 17 µM (inactive) | 26.5 µM (inactive) | 20.4 µM (inactive)
6 | O=C(Cc1ccccc1)N/N=C(/c1nc2ccc([N+](=O)[O-])cc2nc1O)C(O)c1ccccc1Cl (stereo not drawn) | 80.2 µM (inactive) | 46.6 µM (inactive) | > 100 µM (inactive) | > 100 µM (inactive) | > 100 µM (inactive) | > 100 µM (inactive) | > 100 µM (inactive) |  |  | > 100 µM (inactive) | > 100 µM (inactive) | 41.4 µM (inactive) | > 100 µM (inactive) | > 100 µM (inactive) | > 100 µM (inactive) | > 100 µM (inactive) | > 100 µM (inactive) | > 100 µM (inactive) | > 100 µM (inactive)
7 | N#CC1CC2(C1)OCCS2 (stereo not drawn) | > 100 µM (inactive) | > 100 µM (inactive) | > 100 µM (inactive) | > 100 µM (inactive) | > 100 µM (inactive) | > 100 µM (inactive) |  | > 100 µM (inactive) | > 100 µM (inactive) | > 100 µM (inactive) | > 100 µM (inactive) |  |  | > 100 µM (inactive) | 32.3 µM (inactive) | > 100 µM (inactive) | > 100 µM (inactive) | > 100 µM (inactive) | > 100 µM (inactive)
8 | C/C(CN1C(=O)c2ccccc2C1=O)=N\NS(=O)(=O)c1cccc([N+](=O)[O-])c1 | > 100 µM (inactive) | > 100 µM (inactive) | > 100 µM (inactive) | > 100 µM (inactive) | > 100 µM (inactive) | > 100 µM (inactive) |  | > 100 µM (inactive) | > 100 µM (inactive) | > 100 µM (inactive) | > 100 µM (inactive) | > 100 µM (inactive) | > 100 µM (inactive) | > 100 µM (inactive) | > 100 µM (inactive) | > 100 µM (inactive) | > 100 µM (inactive) | > 100 µM (inactive) | > 100 µM (inactive)
9 | CCC1(C(=O)OC)CCc2c(OC)ccc(OC)c2C1=O (stereo not drawn) | > 100 µM (inactive) | > 100 µM (inactive) | > 100 µM (inactive) | > 100 µM (inactive) | > 100 µM (inactive) | > 100 µM (inactive) |  | > 100 µM (inactive) |  | > 100 µM (inactive) | > 100 µM (inactive) | > 100 µM (inactive) | > 100 µM (inactive) | > 100 µM (inactive) |  | > 100 µM (inactive) | > 100 µM (inactive) | > 100 µM (inactive) | > 100 µM (inactive)
10 | COc1ccc(/C(C#N)=C(/N)SCc2ccccc2Cl)cc1 | 26.4 µM (inactive) |  | 27.9 µM (inactive) | 20.3 µM (inactive) | 18.8 µM (inactive) | 14.8 µM (inactive) | 17.8 µM (inactive) | 11.1 µM (inactive) | 16.6 µM (inactive) | 17.1 µM (inactive) | 17.4 µM (inactive) |  | 27.8 µM (inactive) | 24.7 µM (inactive) | 23.2 µM (inactive) | 32.1 µM (inactive) | 18.1 µM (inactive) | 21.2 µM (inactive) | 16.5 µM (inactive)
11 | CCC12CC[C@H](C#N)N3CCc4c(n(c5ccccc45)C(=O)C1)C32 (stereo partly drawn) | 15.9 µM (inactive) | 12.6 µM (inactive) | 12.3 µM (inactive) | 19.1 µM (inactive) | 13.9 µM (inactive) | 22.9 µM (inactive) |  | 13.3 µM (inactive) | 13.3 µM (inactive) | 12.4 µM (inactive) | 17.5 µM (inactive) | 12.7 µM (inactive) | 35.3 µM (inactive) | 19.4 µM (inactive) | 5.56 µM (inactive) | 16.4 µM (inactive) | 16.3 µM (inactive) | 23 µM (inactive) | 14.1 µM (inactive)
12 | CC(C)(O)[C@@H]1CC[C@@]2(C)CCCC(O)C2(O)C1 (stereo partly drawn) | > 100 µM (inactive) | > 100 µM (inactive) | > 100 µM (inactive) | > 100 µM (inactive) | > 100 µM (inactive) | > 100 µM (inactive) | > 100 µM (inactive) | > 100 µM (inactive) |  | > 100 µM (inactive) | > 100 µM (inactive) | > 100 µM (inactive) | > 100 µM (inactive) | > 100 µM (inactive) | > 100 µM (inactive) | > 100 µM (inactive) | > 100 µM (inactive) |  | > 100 µM (inactive)
13 | CCOC(=O)C[C@@]12CCCNC1(C)CCc1ccccc12 (stereo partly drawn) | > 100 µM (inactive) |  | > 100 µM (inactive) | > 100 µM (inactive) | > 100 µM (inactive) | > 100 µM (inactive) |  | > 100 µM (inactive) |  | 52.5 µM (inactive) | > 100 µM (inactive) | > 100 µM (inactive) | > 100 µM (inactive) | > 100 µM (inactive) |  | > 100 µM (inactive) | > 100 µM (inactive) | > 100 µM (inactive) | > 100 µM (inactive)
14 | COc1cc(C=O)c(-c2cc3c(cc2C=O)OCO3)c(OC)c1OC | 93.8 µM (inactive) | 76.9 µM (inactive) | 88.1 µM (inactive) | 92.5 µM (inactive) | 64.3 µM (inactive) | 108 µM (inactive) | 29.6 µM (inactive) | 56.6 µM (inactive) | 63.5 µM (inactive) | 70 µM (inactive) | 81.8 µM (inactive) | 94.6 µM (inactive) | 98.6 µM (inactive) | 85.9 µM (inactive) |  | 210 µM (inactive) | 126 µM (inactive) | 178 µM (inactive) | 65.6 µM (inactive)
15 | CCOC(=O)CCC(NC(=O)C(Cc1ccc([N+](=O)[O-])cc1)NC(=O)OC(C)(C)C)C(=O)NC(CCC(=O)OCC)C(=O)OCC (stereo not drawn) (Boc-[Phe(4-NO2)]-Glu(OEt)-Glu(OEt)-OEt; configuration not given here) | 38.5 µM (inactive) |  |  | 21.2 µM (inactive) | 18.3 µM (inactive) | 24.2 µM (inactive) | 15.8 µM (inactive) |  | 16.6 µM (inactive) |  |  | 17.4 µM (inactive) |  | 22.3 µM (inactive) | 15.6 µM (inactive) | 15.5 µM (inactive) | 19.8 µM (inactive) | > 10 µM (inactive) | 13.2 µM (inactive)
16 | C[C@@H]1C[C@@H]([C@H](O)CC2CC(=O)NC(=O)C2)C(=O)[C@@H](C)C1 [CYCLOHEXIMIDE] | 0.0366 µM (active) |  | < 0.0186 µM (active) | 0.0352 µM (active) | 0.0738 µM (active) | 0.0596 µM (active) | 0.0366 µM (active) | 0.131 µM (active) | 0.0315 µM (active) | 0.142 µM (active) | 0.0431 µM (active) | 0.0248 µM (active) | 0.127 µM (active) | 0.0199 µM (active) | 0.083 µM (active) | 0.0865 µM (active) | 0.0603 µM (active) | 0.0933 µM (active) | 0.106 µM (active)
